The target of experiment [1] is T1, PADI4 (Homo sapiens, UniProt Q9UM07).
T1 construct: His6; made in house
Description: Incubation time-dependent COLDER assay IC50(t), Krippendorff fit. The class given is biochemical. Conditions: for IC50: replicates, read-out: apparent IC50. Here is the method: To determine KI and kinact of covalent peptide inhibitors, COLDER assays were used[52]. Peptide dilutions were prepared using 5-fold dilutions from 500 µM and 300 µM to 0.8 µM and 2.4 µM, respectively, at 1% DMSO in COLDER buffer (50 mM HEPES, 150 mM NaCl and 2 mM DTT, pH 7.5). The 9 peptide dilutions were added to a 96-well plate, alongside a 1% DMSO control. An equal volume of 10 mM BAEE was added to each well and the solution was homogenised by pipette mixing. This was mixed with 50 nM His-PADI4, 0.6 mg/mL BSA and 10 mM CaCl2, in COLDER buffer, to bring the final volume to 300 µL in each well. Alternatively, His-PAD1 (100 nM) /His-PADI2 (100 nM) /His-PADI3 (250 nM) were used. For assays with PADI1 and PADI3, 10 mM N^α-benzoyl-L-arginine methyl […] (BAME) was used as the substrate instead of BAEE[48],[58],[59]. At 15-minute intervals, for 5 timepoints, 50 µL of solution was taken from each well and quenched with 10 µL EDTA (300 mM). 200 µL of COLDER solution containing 20 mM diacetyl monoxime/2,3-butanedione monoxime (Merck), 0.5 mM thiosemicarbazide (Acros Organics), 2.25 M H3PO4, 4.5 M H2SO4 and 1.5 mM NH4Fe(SO4)2.12H2O was added to each well. Samples were incubated for 20 min at 95 °C before measuring absorbance at 540 nm on a CLARIOstar Plus (BMG LABTECH). IC50 values for each time point were determined using non-linear regression with GraphPad Prism. Incubation time–dependent potency IC50(t) against incubation time was fitted to the Krippendorff equation (below) to determine KI and kinact using a Python script[53],[59]. […] IC50t=KI1+S/KM⋅2−2e^−ηIC50⋅kinact⋅t/ηIC50⋅kinact⋅t−1 WhereηIC50=IC50t/KI1+S/KM+IC50t

In experiment [2] the target is T1, PADI4. Description: COLDER inhibition assay, BAEE substrate, with or without 1 h preincubation. The class given is biochemical. Conditions: for IC50: COLDER; for remaining activity at 0.003 µM: peptide 0.003 µM; for remaining activity at 0.01 µM: peptide 0.01 µM; for remaining activity at 0.1 µM: peptide 0.1 µM; for remaining activity at 1 µM: peptide 1 µM; for remaining activity at 3 µM: peptide 3 µM; for remaining activity at 10 µM: peptide 10 µM; for remaining activity at 30 µM: peptide 30 µM; for remaining activity at 0.03 µM: peptide 0.03 µM; for remaining activity at 0.3 µM: peptide 0.3 µM. As for the experimental part:
PADI4 citrullination activity was analysed using the COLDER assay in 96-well plates. Peptide dilutions were prepared from a 500 µM stock, to give a 10 times concentrated dilution series (500 µM, 300 µM, 100 µM, 30 µM, 10 µM, 3 µM, 1 µM, 0.3 µM, 0.1 µM and 0.03 µM) in COLDER buffer (50 mM HEPES, 150 mM NaCl and 2 mM DTT, pH 7.5) containing 1% DMSO. In triplicate, each was diluted 10-fold further when mixed with 50 nM His-PADI4, 0.6 mg/mL BSA and 10 mM CaCl2, in COLDER buffer. With or without one hour of incubation, 10 mM N^α-Benzoyl-L-arginine ethyl ester hydrochloride (BAEE, Merck) was added to initiate the reaction (50 µL final volume). After 30 min at rt, EDTA (50 mM final concentration) was used to quench the reaction and 200 µL of COLDER solution containing 20 mM Diacetyl monoxime/2,3-butanedione monoxime (Merck), 0.5 mM Thiosemicarbazide (Acros Organics), 2.25 M H3PO4, 4.5 M H2SO4 and 1.5 mM NH4Fe(SO4)2.12H2O was added to each well. Samples were incubated for 20 min at 95 °C before measuring absorbance at 540 nm on a CLARIOstar Plus (BMG LABTECH). Data analysis was performed with GraphPad Prism. Data are presented as the average ± standard error of the mean from at least two independent replicates.

The target of experiment [3] is T1, PADI4. Description: Surface plasmon resonance (SPR), single cycle kinetics. Format: binding. Conditions: for Ki: k-1/k+1. As for the experimental part: S8. Surface plasmon resonance (SPR)
Using a Biacore S200 (GE Healthcare), biotinylated His-PADI4 (80 nM) was immobilised on a CAP chip (GE Healthcare) to a response unit of approx. 3000. At 25 °C, single cycle kinetics mode was used with 5 samples of a 3-fold dilution series of peptides PADI4_3_H4(2), cP4_2, […]
mM HEPES, 150 mM NaCl, 10 mM CaCl2, 0.05% Tween-20, 0.1% DMSO (pH 7.5). After each cycle, regeneration of the chip was carried out as per the manufacturer’s protocol. Data were analysed with the Biacore S200 Evaluation Software, each in triplicate. Warhead-containing peptides were analysed using the two-state reaction model, with the rate constant for the reverse second step (k-2) set to zero. The equilibrium constant of the reversible binding step, Ki, was calculated as the ratio of k-1/k+1 and the rate constant of the irreversible chemical step, kinact, as k+2. The Arg4, Cit4 and Me4 peptides were fitted using a 1:1 binding model. […]
A general note: In SPR one partner is held on a chip, and binding of the other changes the refractive index at the surface.

[4] abbreviates: Krippendorff fit of IC50 vs time.
[5] abbreviates: 1 h preincubation of peptide and PADI4, 10 mM CaCl2, read-out: IC50 Values 1 h preincubation.
[6] abbreviates: T=0, values starred, read-out: PADI4 activity normalised to 0.1% DMSO.
Where [7] appears, read: T=0, read-out: PADI4 activity normalised to 0.1% DMSO.
The mark [8] stands for this setting: each replicate, read-out: k2 / kinact.
Setting [9] is: two-state reaction model, k+2, read-out: SPR kinact (converted).
[10] abbreviates: 1 h, T=1 (1 h preincubation), read-out: PADI4 activity, dose-response data of Figure S15 (individual replicates).
[11] abbreviates: T=0 (no preincubation), read-out: PADI4 activity, dose-response data of Figure S15 (individual replicates).

Experimental findings from publication PMC11659602, “Discovering covalent cyclic peptide inhibitors of peptidyl arginine deiminase 4 (PADI4) using mRNA-display with a genetically encoded electrophilic warhead” (Communications Chemistry, 2024) are described below.

The structures appear in SMILES notation. Values joined by “and” are separate entries in the source; they are usually repeats but may differ in a detail not shown here. Identical values can stand only once. Like-named read-outs stand apart in the source and are kept apart here. Where a SMILES comes first, the peptide text is derived from it. Bridges are numbered along the chain shown (N, C = ends). [ ]: non-standard residue; d: D form. Orn(fluoroacetimidoyl) = N=C(CF)NCCC[C@H](N)C(=O)O

T1 sequence (Q9UM07 whole entry): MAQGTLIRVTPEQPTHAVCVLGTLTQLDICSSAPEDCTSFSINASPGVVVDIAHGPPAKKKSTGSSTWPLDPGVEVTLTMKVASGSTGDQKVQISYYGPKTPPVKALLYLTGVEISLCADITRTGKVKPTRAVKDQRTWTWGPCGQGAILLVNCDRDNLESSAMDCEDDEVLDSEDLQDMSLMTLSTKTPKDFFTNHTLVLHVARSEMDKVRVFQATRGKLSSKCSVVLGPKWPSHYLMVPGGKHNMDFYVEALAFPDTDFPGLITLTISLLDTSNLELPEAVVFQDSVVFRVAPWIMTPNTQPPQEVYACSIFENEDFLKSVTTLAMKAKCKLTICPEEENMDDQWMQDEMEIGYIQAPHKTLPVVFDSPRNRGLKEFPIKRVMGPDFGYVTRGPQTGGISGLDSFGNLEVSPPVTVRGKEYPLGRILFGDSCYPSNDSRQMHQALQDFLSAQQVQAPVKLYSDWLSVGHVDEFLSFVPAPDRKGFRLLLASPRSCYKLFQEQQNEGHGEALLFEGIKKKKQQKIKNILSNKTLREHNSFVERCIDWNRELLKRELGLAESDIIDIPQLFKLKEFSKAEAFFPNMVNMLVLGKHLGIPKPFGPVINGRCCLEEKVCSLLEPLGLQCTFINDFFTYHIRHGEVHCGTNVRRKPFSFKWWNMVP

One may read the kinact/KI as the second-order rate constant of inactivation. For orientation: IC50 means the concentration that inhibits the measured activity by half. For the compound `CC(C)[C@@H]1NC(=O)[C@@H](Cc2ccc(O)cc2)NC(=O)CSC[C@@H](C(=O)NCC(N)=O)NC(=O)[C@H](Cc2ccc(O)cc2)NC(=O)[C@H](CCCCN)NC(=O)[C@H](Cc2c[nH]c3ccccc23)NC(=O)[C@H](CCC(=O)O)NC(=O)[C@H](CCCCN)NC(=O)[C@H](CCCNC(=N)CF)NC(=O)[C@H](CO)NC(=O)[C@H](Cc2ccc(O)cc2)NC1=O` [cP4_7, yVYS(2)KEWKYCG] ({CH2CO}-[dY]VYS[Orn(fluoroacetimidoyl)]KEWKYCG-NH2; thioether N-11), the second-order inactivation constant (kinact/KI) on PADI4 [1] is 300 M⁻¹ s⁻¹; at PADI4 [3], 5720 M⁻¹ s⁻¹. Further, the IC50 at PADI4 [1] (15 mins) is 27.7 µM and 48.2 µM and 40.3 µM; at PADI4 [1] (30 mins), 12.5 µM and 21.4 µM and 18.5 µM; on PADI4 [1] (45 mins) it was 8.85 µM and 10 µM and 8.94 µM; at PADI4 [1] (60 mins), 6.22 µM and 7.03 µM and 7.47 µM; on PADI4 [1] (75 mins), 5.35 µM and 5.67 µM and 6.53 µM; on PADI4 [2] (setting [5]), 0.16 ± 0.02 µM. The IC50 on PADI4 [2] (no preincubation of peptide and PADI4, 10 mM CaCl2, read-out: IC50 Values 0 h preincubation) was found to be 8 ± 1.2 µM. Moreover, the Ki was 4.3 ± 1.1 µM at PADI4 [1] (setting [4]) and 1.6 ± 0.1 µM on PADI4 [3] (two-state reaction model). The kinact at PADI4 [1] (setting [4]) was 0.00128 s⁻¹; at PADI4 [3] (setting [8]), 0.0086 s⁻¹; at PADI4 [3] (setting [9]), 0.00917 s⁻¹. Moreover, the remaining activity at 0.003 µM at PADI4 [2] (setting [6]) is 99.1%; on PADI4 [2] (T=1, read-out: PADI4 activity normalised to 0.1% DMSO), 99.2%. In addition, the remaining activity at 0.01 µM at PADI4 [2] (setting [6]) was found to be 99.2%. The remaining activity at 0.1 µM on PADI4 [2] (setting [7]) came to 100%. The remaining activity at 1 µM on PADI4 [2] (setting [7]) was 93.8%. The remaining activity at 3 µM at PADI4 [2] (setting [7]) amounted to 79%. For the same compound, the remaining activity at 10 µM at PADI4 [2] (setting [7]) worked out at 49.3%. Besides, the remaining activity at 30 µM at PADI4 [2] (setting [7]) was determined as 20.9%. The k2 / kinact on PADI4 [3] (each replicate) amounted to 0.0094 s⁻¹.

For `CC[C@H](C)[C@@H]1NC(=O)[C@H](CCCNC(=N)N)NC(=O)[C@H](Cc2ccc(O)cc2)NC(=O)[C@H](CCCNC(=N)N)NC(=O)[C@H](CCC(=O)O)NC(=O)[C@H](CCCNC(=N)CF)NC(=O)[C@H](CC(N)=O)NC(=O)[C@H](CC(C)C)NC(=O)[C@@H](Cc2ccc(O)cc2)NC(=O)CSC[C@@H](C(=O)NCC(N)=O)NC(=O)[C@H](CO)NC1=O` [cP4_18] ({CH2CO}-[dY]LN[Orn(fluoroacetimidoyl)]ERYRISCG-NH2; thioether N-11), at PADI4 [2] (setting [10]), the remaining activity at 0.003 µM is 101%, the remaining activity at 0.01 µM worked out at 99.7%, the remaining activity at 0.03 µM came out at 95.4% and the remaining activity at 0.1 µM was determined as 77.6%. At PADI4 [2] (setting [10]), the remaining activity at 0.3 µM is 35.4% and the remaining activity at 1 µM turned out to be 10%. The IC50 at PADI4 [2] (setting [5]) came to 0.18 µM. For the same compound, on PADI4 [2] (setting [11]), the remaining activity at 0.003 µM turned out to be 106%, the remaining activity at 0.01 µM is 108%, the remaining activity at 0.03 µM amounted to 107% and the remaining activity at 0.1 µM is 110%. Besides, on PADI4 [2] (setting [11]), the remaining activity at 0.3 µM is 107%, the remaining activity at 1 µM is 102%, the remaining activity at 3 µM came to 94.6% and the remaining activity at 10 µM worked out at 64.3%. On PADI4 [2] (setting [11]), the remaining activity at 30 µM stood at 31.1%. Moreover, the remaining activity at 50 µM on PADI4 [2] (T=0 (no preincubation), peptide 50 µM, read-out: PADI4 activity, dose-response data of Figure S15 (individual replicates)) was found to be 21.4%. The compound also showed a k2 / kinact at PADI4 [3] (each replicate) of 0.0019 s⁻¹. Moreover, the kinact at PADI4 [3] (setting [8]) was found to be 0.0027 s⁻¹. In addition, the kinact at PADI4 [3] (setting [9]) was 0.00317 s⁻¹. The compound further registered a Ki at PADI4 [3] (two-state reaction model) of 0.81 ± 0.08 µM.
